Molecular target: T1, matrix metalloproteinase-2 (Homo sapiens, UniProt P08253)
T1 construct: purchased not specified for the assay (Sigma Co. recombinant enzyme or a component of the Shanghai Easy Biotech Co. ELISA kit)
T1 sequence (P08253 110-660): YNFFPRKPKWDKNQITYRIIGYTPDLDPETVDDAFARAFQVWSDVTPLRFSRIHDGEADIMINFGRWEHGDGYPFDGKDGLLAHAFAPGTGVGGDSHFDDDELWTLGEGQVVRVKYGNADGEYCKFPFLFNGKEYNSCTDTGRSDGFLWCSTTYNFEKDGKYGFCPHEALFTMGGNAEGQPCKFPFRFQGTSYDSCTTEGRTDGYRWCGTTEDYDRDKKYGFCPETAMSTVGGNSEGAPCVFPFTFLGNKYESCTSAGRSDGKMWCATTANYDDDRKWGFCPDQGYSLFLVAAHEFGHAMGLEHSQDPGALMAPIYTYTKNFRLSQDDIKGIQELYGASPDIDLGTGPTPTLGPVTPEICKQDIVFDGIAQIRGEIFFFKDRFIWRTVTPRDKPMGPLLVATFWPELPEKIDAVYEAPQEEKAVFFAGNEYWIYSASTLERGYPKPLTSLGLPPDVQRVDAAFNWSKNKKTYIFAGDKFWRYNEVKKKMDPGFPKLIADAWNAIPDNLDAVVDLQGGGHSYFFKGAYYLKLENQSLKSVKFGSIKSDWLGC
Assay: Matrix metalloproteinase-2 inhibitory assay
Format: biochemical
Details: MMP-2 inhibition, 30 min at 37°C, absorbance 450 nm
Description: The inhibitory effects of binding ligands were evaluated as below. […] Test components were dissolved in the buffer to yield a gradient of concentrations between 1 and 200 μM. A total of 50 μl of test components and 100 μl of the enzyme solution were added to a 96-well plate and incubated for 30 min at 37°C. Afterward, the solution in the 96-well plate was discarded. The plate was dried on water adsorbing paper. A total of 200 μl of wash solution was added to each well and incubated for 30 s. Again, the solution in the 96-well plate was abandoned. The plate was dried on water adsorbing paper. This step was carried out five times. A total of 50 μl aliquots of solution A and 50 μl aliquots of solution B were added to each well and kept in a dark place for 15 min. As a result, 50 μl aliquots of stopping solution were pipetted into each well. The plate was monitored at the absorbance of 450 nm by using an automatic microplate reader.

Row | Compound | IC50 [µM]
1 | O=C(O[C@@H]1O[C@@H]2COC(=O)c3cc(O)c(O)c(O)c3-c3c(cc(O)c(O)c3O)C(=O)O[C@H]([C@H]1O)[C@@H]2O)c1cc(O)c(O)c(O)c1 [Corilagin] | 28.6 ± 2.83
2 | O=c1oc2c(O)c(O)cc3c(=O)oc4c(O)c(O)cc1c4c23 [Ellagic acid, reference compound] | 37.8 ± 1.96
3 | C[C@@H]1CC[C@]2(C(=O)O[C@@H]3O[C@H](CO)[C@@H](O)[C@H](O)[C@H]3O)CC[C@]3(C)C(=CC[C@@H]4[C@@]5(C)C[C@@H](O)[C@@H](O)C(C)(C)[C@@H]5CC[C@]43C)[C@@H]2[C@]1(C)O [Kajiichigoside F1] | 22 ± 2.15
4 | CC1(C)CC[C@]2(C(=O)O)CC[C@]3(C)C(=CC[C@@H]4[C@@]5(C)C[C@H](O)[C@H](O)[C@@](C)(C(=O)O)[C@@H]5CC[C@]43C)[C@@H]2C1 [Medicogenic acid, Medicagenic acid] | 64.1 ± 13.6
5 | C[C@@H]1CC[C@]2(C(=O)O[C@@H]3O[C@H](CO)[C@@H](O)[C@H](O)[C@H]3O)CC[C@]3(C)C(=CC[C@@H]4[C@@]5(C)C[C@@H](O)[C@H](O)[C@@](C)(CO)[C@@H]5CC[C@]43C)[C@@H]2[C@]1(C)O [Niga-ichigoside F1] | 20.1 ± 1.55
6 | C[C@@H]1CC[C@]2(C(=O)O[C@@H]3O[C@H](CO)[C@@H](O)[C@H](O)[C@H]3O)CC[C@]3(C)C(=CC[C@@H]4[C@@]5(C)C[C@@H](O)C(=O)C(C)(C)[C@@H]5CC[C@]43C)[C@@H]2[C@]1(C)O [Potentillanoside A] | 25.5 ± 3.01
7 | C=C1[C@H]2C3=CC[C@@H]4[C@@]5(C)C[C@@H](O)[C@H](O)[C@@](C)(CO)[C@@H]5CC[C@@]4(C)[C@]3(C)CC[C@@]2(C(=O)O[C@@H]2O[C@H](CO)[C@@H](O)[C@H](O)[C@H]2O)CC[C@H]1C [Quadranoside VIII] | 25.9 ± 5.66
8 | C[C@@H]1CC[C@]2(C(=O)O[C@@H]3O[C@H](CO)[C@@H](O)[C@H](O)[C@H]3O)CC[C@]3(C)C(=CC[C@@H]4[C@@]5(C)C[C@@H](O)[C@H](O)C(C)(C)[C@@H]5CC[C@]43C)[C@@H]2[C@]1(C)O [Rosamultin] | 20.7 ± 2.06
9 | CC1=C2[C@H](/C=C(\C)C(=O)O)CC[C@@H](C)[C@H]2CC1 [Valerenic acid] | 82.5 ± 8.87
10 | COC(=O)[C@@]1(C)CC[C@]2(C(=O)O[C@@H]3O[C@H](CO)[C@@H](O)[C@H](O)[C@H]3O)CC[C@]3(C)C(=CC[C@@H]4[C@@]5(C)CC[C@H](O)[C@@](C)(CO)[C@@H]5CC[C@]43C)[C@@H]2C1 [Zebirioside O] | 23.2 ± 4.49
11 | Oreganol A | 30.8 ± 2.13
12 | Peduncloside | 23.2 ± 2.53

Molecular target: T2, MS@PEI@QDs@PEI@MMP-2 (immobilized matrix metalloproteinase-2) (Homo sapiens, UniProt P08253)
T2 construct: purchased Sigma Co; host or cells: HEK 293 cells
T2 sequence (P08253 110-660): T1 sequence (P08253 110-660)
Assay: Microfluidic chip-based ligand fishing
Format: binding
Details: dissociated solution after microfluidic chip-based ligand fishing
Description: All ligand fishing experiments were performed on the microfluidic chip system. The microfluidic chip system consisted of six modules, namely, a microscope stand, a light-emitting diode surface light source, a charge-coupled device (CCD) camera, a temperature controller, an automated x-y-z translation stage (Wuhan Mesovision Biotechnology Co.) for controlling the movement of the microfluidic chip, and four syringe pumps (Baoding Lange Constant Current Pump Co.). Before use, the microfluidic chip was first treated with 1% tween 80 in n-hexadecane (v/v) through port a to make the whole chip surface hydrophobic. […] Under the monitoring of the top-view CCD camera, MS@PEI@QDs@PEI@MMP-2 were infused into the upper left port b, whereas extract of R. roxburghii was infused into upper right port c at an appropriate flow rate to allow the solution to meet the MS@PEI@QDs@PEI @MMP-2 at the junction. The mixture was incubated in the channel for a period. Then, 500 μl aliquots of wash solvent (PBS buffer) were infused into the port d. At the turning point, a small ring magnet trapped the MS@PEI@QDs@PEI@MMP-2. […] The linearity was analyzed by plotting the peak area of the ellagic acid against a series of concentrations (0.009–1.00 mg·ml^−1). The lower limit of quantification was determined as the analytical concentration at an S/N ratio of 10. […] The UV spectra were monitored at 254 nm. […]

Row | Compound | extraction yield [%]
13 | CNC(=O)[C@H](Cc1ccccc1)NC(=O)[C@H](CC(C)C)[C@H](CSc1cccs1)C(=O)NO [Batimastat] | 76.6
